Results: patent publication US20230015595A1, “USE OF VALPROIC ACID FOR REDUCING POST-OPERATIVE SCARRING FOLLOWING A GLAUCOMA SURGERY” (SANTEN PHARMACEUTICAL CO., LTD., priority 2019, published 2023)
Entries after “also recorded” stand apart in the source; their conditions may differ.

Experiments:
[1] = test system: rabbit model of microshunt implant surgery; assay: Rabbit model of microshunt implant surgery, MMC high/low dose and low dose MMC with VPA; format: in vivo
Description: The rabbit model of microshunt implant surgery using the PRESERFLO® MicroShunt (Santen) was performed and treated under these conditions: • (a) 0.4 mg/ml MMC via sponge for 1 min; • (b) 0.1 mg/ml MMC via sponge for 1 min; and • (c) 0.1 mg/ml MMC via sponge for 1 min in combination with a total of 11 injections of 300 μg/ml VPA, immediately after surgery, and once daily for first 7 days, followed by injections on days 10, 14 and 21 post-surgery.
The rabbit eyes were then evaluated.

[2] = test system: rabbit model of microshunt implant surgery; assay: Rabbit model of microshunt implant surgery (PRESERFLO MicroShunt), VPA alone vs PBS; format: in vivo
Description: The rabbit model of microshunt implant surgery using the PRESERFLO® MicroShunt (Santen) was performed with a total of 11 injections of 300 μg/ml VPA, immediately after surgery, and once daily for first 7 days, followed by injections on days 10, 14 and 21 post-surgery. The rabbit eyes were evaluated by slit lamp photography (FIG. 7).
Confocal microscopy was used to correlate bleb appearance and function. It is known that significant positively correlating features include cyst size and vasculature density/tortuosity.

[3] = test system: primary rabbit conjunctival fibroblasts; assay: Type I collagen (Col1a1) expression and cell growth in primary rabbit conjunctival fibroblasts; format: cell-based
Description: For application in the rabbit model of microshunt implant surgery (PRESERFLO® MicroShunt, Santen), the dosage of VPA to be used was determined using primary rabbit conjunctival fibroblasts for (1) effectiveness in reducing type I collagen, and (2) non-toxicity on cell growth, as shown in FIG. 6.

[4] = test system: mouse model of conjunctival scarring; assay: Mouse model of conjunctival scarring, quantitative multiphoton imaging and histology of collagen; format: in vivo
From the text: The conjunctiva was dissected to reveal the sclera where an incision was made into the anterior chamber. The resulting fistula allowed aqueous humor to exit into and underneath the conjunctiva. The accumulated fluid underneath the sutured conjunctiva was observed as a conjunctival bleb. To determine whether VPA has the capacity to protect collagen architecture, quantitative multiphoton imaging as described in Xu S et al (J. Hepatol., 2014, 61(2):260-269) was used to measure collagen properties in the mouse model of conjunctival scarring treated with VPA. The onset of scarring, as indicated by peak production of collagen mRNA, was measured on day 7 post-surgery. The mature scar was measured on day 14 post-surgery when collagen mRNA production was subdued. To study the impact of VPA on the collagen architecture during the onset of scarring on day 7, mice were injected with 300 μg/ml VPA directly into the operated area immediately after surgery and on day 2. To determine the effect of VPA in the mature scar on day 14, mice were injected as above, with an additional injection on day 7. By this method, it could be readily observed in histologically-stained sections as well as multiphoton scans that collagen fibers in the VPA-treated eyes were thinner than those in the PBS-treated control eyes. Exemplary collagen fibers showing the thinning effect of VPA are indicated by the white arrowheads in FIG. 2.

[5] = test system: human Tenons conjunctival fibroblasts; assay: Type I collagen (Col1a1) expression in human Tenons conjunctival fibroblasts; format: cell-based; conditions: human Tenons conjunctival fibroblasts from three donors
Description: Likewise, for application in human, the dosage of VPA to be used was determined as in the rabbit model for effectiveness in reducing type I collagen. The effect of VPA on type I collagen expression in human Tenons conjunctival fibroblasts derived from three independent donors was investigated, and the results are as shown in FIG. 6B.

[6] = 300 μg/ml VPA, 28 days post-surgery, vs PBS
[7] = 300 μg/ml VPA, day 28 rabbit tissues
[8] = 300 μg/ml VPA, day 28 rabbit tissues, vs PBS controls

CO[C@@]12[C@H](COC(N)=O)C3=C(C(=O)C(C)=C(N)C3=O)N1C[C@@H]1N[C@@H]12 [MMC, mitomycin C]
mRNA expression of Col1a1 ([1]; 0.1 mg/ml MMC, day 28 rabbit tissues, vs 0.4 mg/ml MMC and 0.1 mg/ml MMC+VPA, n=5): significantly higher
bleb cysts (confocal microscopy) ([1]; rabbit, in vivo): large cysts; also recorded: smaller cysts
bleb morphology (slit lamp) ([1]; rabbit, in vivo): starkly avascular and cystic bleb; also recorded: less avascular and mildly cystic bleb
collagen fibers around implant tip (picrosirius red, polarised light) ([1]; rabbit, in vivo): thick collagen fibers encapsulating the implant

CCCC(CCC)C(=O)O [VPA, valproic acid]
collagen fibers around implant tip (picrosirius red, polarised light) ([1]; VPA 300 μg/mL with 0.1 mg/ml MMC (condition c)): reduced the presence of the thick fibers encapsulating the implant
bleb collagen fiber packing (confocal microscopy) ([2]; 300 μg/ml VPA, 28 days post-surgery, PBS tightly-packed): loosely packed collagen fibers
bleb vasculature (confocal microscopy) ([2]; 300 μg/ml VPA, 28 days post-surgery, PBS tortuous): straight
bleb collagen characteristics (histology) ([2]; 300 μg/ml VPA, 28 days post-surgery, compared to normal tissue): thinner and similarly organized array of collagen fibers
COL1A1 and fibronectin fibers (immunofluorescent staining) [2, 6]: thinner and more diffusely distributed fibers
bleb cysts (confocal microscopy) [2, 6]: large cysts
Smad6 expression [2, 7]: significantly induced
Vegfa expression [2, 7]: significantly elevated
collagen transcript expression [2, 8]: significantly reduced
fibronectin transcript expression [2, 8]: significantly reduced
time a filtering bleb was maintained (slit lamp) ([2]; 11 injections of 300 μg/ml VPA, PBS bleb failed by day 14): at least 28 days
lowest concentration effective in significantly reducing Col1a1 expression without disrupting cell proliferation [3]: 300 µg/mL
collagen fibers in histologically-stained sections and multiphoton scans ([4]; 300 μg/ml VPA injected into operated area, vs PBS-treated control eyes): thinner
number of collagen fibers per mm^2 ([4]; 300 μg/ml VPA, both time points (days 7 and 14), vs PBS): significantly reduced
Collagen Reticulation Index (CRI) ([4]; 300 μg/ml VPA, day 7, vs PBS treatment): significant reduction
Collagen Reticulation Index (CRI) ([4]; 300 μg/ml VPA, day 14 mature scar): lack of effect
collagen area ratio (CAR) ([4]; 300 μg/ml VPA, days 7 and 14 post-surgery, vs PBS): significantly reduced
collagen thickness (quantitative multiphoton analyses) ([4]; 300 μg/ml VPA, operated conjunctival sections, vs PBS): reduced
collagen reticulation (measured as CRI and CARD) ([4]; 300 μg/ml VPA, post-operative conjunctiva): not induced
collagen fiber density (CFD) ([4]; 300 μg/ml VPA, vs PBS controls): lack of significant difference
lowest concentration effective in significantly reducing Col1a1 expression without disrupting cell proliferation [5]: 300 µg/mL
